The values that follow come from patent US8524701B2, “Use of a specific cyclic amine derivative or the pharmaceutically acceptable salts thereof for the treatment or prevention of heart failure” (Boehringer Ingelheim Pharma GmbH & Co. KG, priority 2002, dated 2013).

Series [1] has as its system cat eyes. Nature of the series: Electroretinogram (ERG) response to sinusoidally modulated luminances recorded from cat eyes. Format: in vivo. How it is done:
The content of these references, and more particularly the experimental parts described therein, are herein incorporated by reference.
These studies were based on a measurement of the electroretinogram (ERG) responses recorded from cat eyes, in normal conditions and after administration of zatebradine.
In the following experiment, the same experiment was performed using cilobradine, and the results compared to the results obtained with zatebradine.

The subject of series [2] is heart rate. It is filed as in vivo, cat. To be noted: maximum effect, FIG. 1. From the text:
This selection of the dose is based on the result shown in FIG. 1, wherein the reduction of heart rate is plotted against the applied dose of the drug (open circles: zatebradine; filled circles: cilobradine). […] Therefore, by choosing these doses, it can already be assumed that the pharmacological effect on heart rate of cilobradine is better than the pharmacological effect of zatebradine.

For series [3], the system named is heart rate. Format: in vivo. The conditions noted are these: rat. The procedure: A further similar experiment was performed in order to compare the visual side-effect of cilobradine and zatebradine in conditions where the drugs are pharmacologically effective in reducing heart rate. The aim of this experiment was to compare the visual side-effect of both drugs in another experimental animal model, namely on the retinal system of the rat. Furthermore, the aim of this experiment was also to compare the visual side-effect of both drugs in acute and in chronic (over two weeks) drug treatment conditions.
The ERG measurements were made 30 minutes after injection of the drug. The measured heart rate frequency was:
The ERG measurement was made 30 minutes after injection of the drug. The measured heart rate frequency was:
(§1) The ERG measurement was made after the 2 weeks treatment.

The test system of series [4] is retinal system of the rat. Nature of the series: Electroretinogram (ERG) responses from anesthetized pigmented rats as a function of stimulus frequency. It is filed as in vivo. To be noted: for effect on the ERG (visual side-effect): 30 minutes after injection.
Source text: The aim of this experiment was to compare the visual side-effect of both drugs in another experimental animal model, namely on the retinal system of the rat. Furthermore, the aim of this experiment was also to compare the visual side-effect of both drugs in acute and in chronic (over two weeks) drug treatment conditions.
The principle of this experiment is again the same as the principle of the experiment performed by Gargini et al. and published in Vision research, vol.
The results of the experiment are visualized by plotting the measurement of the first amplitude of the Fourier transform of the ERG as a function of the applied stimulus frequency (oscillating light stimulus of high luminance and contrast).
The ERG measurements were made 30 minutes after injection of the drug.
The ERG measurement was made 30 minutes after injection of the drug.
as §1

For series [5], the system named is hyperpolarisation activated, cAMP-modulated cation current channels (HCN) in cardiac conductive tissue. To be noted: cited from earlier work.
Series [6] relates to patients with heart failure. To be noted: Shinke et al. 1997; cited from earlier work.
In series [7] the test system is cat eyes. The conditions noted are these: cited from earlier work.

Molecules are shown by their SMILES. Read-outs that look alike come from different tables or passages of the source.

Regarding `COc1ccc(CCN2CCC[C@H](CN3CCc4cc(OC)c(OC)cc4CC3=O)C2)cc1OC` [cilobradine, (+)-3-[(N-(2-(3,4-dimethoxy-phenyl)-ethyl)-piperidin-3-(S)-yl)-methyl]-7,8-dimethoxy-1,3,4,5-tetrahydro-2H-3-benzazepin-2-one], the “ERG response (visual side-effect)” value in series [1] (after injection of 0.75 mg/kg body weight, FIG. 3) was “no visual effect can be detected”. Besides, the “reduction of the heart rate” value in series [2] (dose of 0.75 mg/kg body weight) is “about 75%”. In addition, the “measured heart rate frequency” value came out at 364 beats per min in series [3] (acute treatment 0.3 mg/kg, 30 minutes after injection, control 400, FIG. 4); 316 beats per min in series [3] (acute treatment 1 mg/kg, 30 minutes after injection, control 400, FIG. 4); 270 beats per min in series [3] (acute treatment 3 mg/kg, 30 minutes after injection, control 400, FIG. 4); 285 beats per min in series [3] (chronic treatment 2 weeks, FIG. 7, table row prints 1 mg/kg, text says double dose of 3 mg/kg per day, control 350); 260 beats per min in series [3] (chronic treatment, single dose 1 mg/kg per day during 2 weeks, control 400, FIG. 6). Besides, in series [4] (acute as well as chronic (2 weeks) treatment, FIGS. 4 and 6), the visual side-effects entry is “without visual side-effects”. For the same compound, the “effect on the ERG (visual side-effect)” value in series [4] (acute treatment 0.3, 1 and 3 mg/kg, FIG. 4) is on record as “no effect on the ERG can be detected”. In addition, the “block of HCN channels responsible for the current If” value in series [5] is “selectively block”.
As to `COc1ccc(CCN(C)CCCN2CCc3cc(OC)c(OC)cc3CC2=O)cc1OC` [zatebradine], the “ERG response (visual side-effect)” value is “reduces the amplitude of the response to stimuli of frequency above 1 Hz and shift the corresponding phase lags” in series [1] (15 minutes after 2.5 mg/kg body weight i.v. injection, FIG. 2); “visual response is back to normal” in series [1] (5 hours after injection of 2.5 mg/kg body weight, FIG. 2). The “reduction of the heart rate” value in series [2] (dose of 2.5 mg/kg body weight) is reported as “about 44%”. Besides, the cardiac efficiency result in series [6] is “improved cardiac efficiency”. Moreover, the ERG response amplitude entry in series [7] (after administration of zatebradine, Archives Italiennes de Biologie 1999, Vision Research 1999) was “reduces the amplitude of the response to stimuli of frequency above 1 Hz”. The “cut-off introduced in the band-pass of the ERG response” value in series [7] (after intravenous injection or oral administration, decreased response amplitude in the range 2 to 15 Hertz) is on record as “about 2 Hertz”. The “measured heart rate frequency” value in series [3] (acute treatment, single dose 3 mg/kg, 30 minutes after injection, control 428, FIG. 5) is recorded as 333 beats per min. For the same compound, in series [4] (acute treatment, single dose 3 mg/kg, FIG. 5), the “effect on the ERG (visual side-effect)” value is “a reduction of the amplitude of the response to stimuli of frequency above 1 Hz and a shift of the corresponding phase lags is observed”. For the same compound, the “block of HCN channels responsible for the current If” value in series [5] is “selectively block”.
